From the supplement of paper PMC10307832

How the values were obtained:
Test in all cases: relative viability (nuclei count vs DMSO), 5 days (fraction); higher = more cells survive
[1] = tested on: IA-LM
How it was run: (§1)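 Nuclei were stained with Hoechst during a one-step fixation (final 0.05% Triton X-100, 1% formaldehyde, 1 ug/ml Hoechst) carried out 5 days after dosing, then counted on 4× images. The cells, lung cancer lines in 1536-well plates, had been dosed by pin tool the day after seeding with one drug alone or a fixed anchor-drug dose plus five library-drug doses (not always all listed) in √10 steps. Relative viability is the nuclei count in treated wells divided by that in vehicle wells, and each value is the median of duplicate plates.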

[2] = tested on: NCI-H1703
How it was run: as §1

[3] = tested on: NCI-H1355
How it was run: as §1

[4] = tested on: LCLC-97TM1
How it was run: as §1

[5] = tested on: NCI-H520
How it was run: as §1

[6] = tested on: NCI-H23
How it was run: as §1

[7] = tested on: A549
How it was run: as §1

[8] = tested on: Calu-6
How it was run: as §1

[9] = tested on: EBC-1
How it was run: as §1

[10] = tested on: NCI-H2347
How it was run: as §1

[11] = tested on: NCI-H1299
How it was run: as §1

[12] = tested on: LC-2-ad
How it was run: as §1

[13] = tested on: NCI-H1623
How it was run: as §1

[14] = tested on: PC-3 [JPC-3]
How it was run: as §1

Compound `COCC1(CO)C(=O)C2CCN1CC2` (stereo not drawn) [PRIMA-1MET] + COc1cc2c(Oc3ccc(NC(=O)C4(C(=O)Nc5ccc(F)cc5)CC4)cc3F)ccnc2cc1OCCCN1CCOCC1 [Foretinib] (partner 0.25 µM) has a relative viability ([1]; first compound 0.2 µM) of 1.07, a relative viability ([1]; first compound 0.6325 µM) of 1.12 and a relative viability ([1]; first compound 2 µM) of 1.35. It also gave a relative viability ([1]; first compound 6.325 µM) of 1.06, a relative viability ([1]; first compound 20 µM) of 1.07 and a relative viability ([2]; first compound 0.2 µM) of 0.512. The relative viability ([2]; first compound 0.6325 µM) was 0.368, the relative viability ([2]; first compound 2 µM) was 0.353 and the relative viability ([2]; first compound 6.325 µM) was 0.388. The relative viability ([2]; first compound 20 µM) was 0.0682, the relative viability ([3]; first compound 0.2 µM) was 1.02 and the relative viability ([3]; first compound 0.6325 µM) was 0.846. It also gave a relative viability ([3]; first compound 2 µM) of 1.01, a relative viability ([3]; first compound 6.325 µM) of 1.01 and a relative viability ([3]; first compound 20 µM) of 0.956. The relative viability ([4]; first compound 0.2 µM) was 0.915, the relative viability ([4]; first compound 0.6325 µM) was 0.909 and the relative viability ([4]; first compound 2 µM) was 0.926. The relative viability ([4]; first compound 6.325 µM) was 0.945, the relative viability ([4]; first compound 20 µM) was 0.826 and the relative viability ([5]; first compound 0.2 µM) was 0.794. The relative viability ([5]; first compound 0.6325 µM) was 0.62, the relative viability ([5]; first compound 2 µM) was 0.669 and the relative viability ([5]; first compound 6.325 µM) was 0.715. The relative viability ([5]; first compound 20 µM) was 0.0989, the relative viability ([6]; first compound 0.2 µM) was 1.09 and the relative viability ([6]; first compound 0.6325 µM) was 1. It also gave a relative viability ([6]; first compound 2 µM) of 0.861, a relative viability ([6]; first compound 6.325 µM) of 0.966 and a relative viability ([6]; first compound 20 µM) of 0.257. The relative viability ([7]; first compound 0.2 µM) was 1.02, the relative viability ([7]; first compound 0.6325 µM) was 0.834 and the relative viability ([7]; first compound 2 µM) was 1.07. For the same compound, the relative viability ([7]; first compound 6.325 µM) was 0.807, the relative viability ([7]; first compound 20 µM) was 0.894 and the relative viability ([8]; first compound 0.2 µM) was 0.918. It also gave a relative viability ([8]; first compound 0.6325 µM) of 0.649, a relative viability ([8]; first compound 2 µM) of 0.899 and a relative viability ([8]; first compound 6.325 µM) of 0.904. For the same compound, the relative viability ([8]; first compound 20 µM) was 0.335, the relative viability ([9]; first compound 0.2 µM) was 0.101 and the relative viability ([9]; first compound 0.6325 µM) was 0.0986. For the same compound, the relative viability ([9]; first compound 2 µM) was 0.105, the relative viability ([9]; first compound 6.325 µM) was 0.107 and the relative viability ([9]; first compound 20 µM) was 0.122. For the same compound, the relative viability ([10]; first compound 0.2 µM) was 0.876, the relative viability ([10]; first compound 0.6325 µM) was 0.724 and the relative viability ([10]; first compound 6.325 µM) was 1.1. For the same compound, the relative viability ([10]; first compound 20 µM) was 0.814, the relative viability ([11]; first compound 0.2 µM) was 1.13 and the relative viability ([11]; first compound 0.6325 µM) was 1.12. It also gave a relative viability ([11]; first compound 2 µM) of 1.19, a relative viability ([11]; first compound 6.325 µM) of 1.12 and a relative viability ([11]; first compound 20 µM) of 1.02. The relative viability ([12]; first compound 0.2 µM) was 0.987, the relative viability ([12]; first compound 2 µM) was 0.843 and the relative viability ([12]; first compound 6.325 µM) was 0.887. It also gave a relative viability ([12]; first compound 20 µM) of 0.966, a relative viability ([13]; first compound 0.2 µM) of 0.789 and a relative viability ([13]; first compound 0.6325 µM) of 0.819. The relative viability ([13]; first compound 2 µM) was 0.744, the relative viability ([13]; first compound 6.325 µM) was 0.905 and the relative viability ([13]; first compound 20 µM) was 0.701. For the same compound, the relative viability ([14]; first compound 0.2 µM) was 1.12, the relative viability ([14]; first compound 0.6325 µM) was 0.942 and the relative viability ([14]; first compound 2 µM) was 1.05. It also gave a relative viability ([14]; first compound 6.325 µM) of 1.07 and a relative viability ([14]; first compound 20 µM) of 0.935.
